Reference: the supplement of paper PMC8967900

Assays:
Assay in all cases: selective drug sensitivity score (sDSS, relative to normal bone marrow) (sDSS (score)); higher = more potent and effective on the cell line relative to normal bone marrow cells
Details in all cases: 72 h
HPB-ALL = system: HPB-ALL
LC4-1 = system: LC4-1
MOLT-4 = system: MOLT-4
SEM cells = system: SEM cells
TANOUE = system: TANOUE
P30-OHKUBO = system: P30-OHKUBO
P12-ICHIKAWA = system: P12-ICHIKAWA
MOLT-16 = system: MOLT-16
COG-LL-332h = system: COG-LL-332h
COG-LL-402h = system: COG-LL-402h
MOLT-14 = system: MOLT-14
SUP-B15 = system: SUP-B15
DND-41 = system: DND-41
CCRF-CEM = system: CCRF-CEM
697 = system: 697
HAL-01 = system: HAL-01
KASUMI-2 = system: KASUMI-2
COG-LL-317 = system: COG-LL-317
COG-LL-394h = system: COG-LL-394h
KOPN-8 = system: KOPN-8
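Also: ALL cell lines in 384-well plates, five doses spanning 10,000-fold, each plate scaled between vehicle and 100 µmol/L benzalkonium chloride controls, sDSS an adapted area-under-curve metric.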

Structure (SMILES) | selective drug sensitivity score (HPB-ALL) | selective drug sensitivity score (LC4-1) | selective drug sensitivity score (MOLT-4) | selective drug sensitivity score (SEM cells) | selective drug sensitivity score (TANOUE) | selective drug sensitivity score (P30-OHKUBO) | selective drug sensitivity score (P12-ICHIKAWA) | selective drug sensitivity score (MOLT-16) | selective drug sensitivity score (COG-LL-332h) | selective drug sensitivity score (COG-LL-402h) | selective drug sensitivity score (MOLT-14) | selective drug sensitivity score (SUP-B15) | selective drug sensitivity score (DND-41) | selective drug sensitivity score (CCRF-CEM) | selective drug sensitivity score 697 | selective drug sensitivity score (HAL-01) | selective drug sensitivity score (KASUMI-2) | selective drug sensitivity score (COG-LL-317) | selective drug sensitivity score (COG-LL-394h) | selective drug sensitivity score (KOPN-8)
CC[C@H](C)C(=O)O[C@H]1C[C@H](O)C=C2C=C[C@H](C)[C@H](CC[C@@H](O)C[C@@H](O)CC(=O)O)[C@H]21 [Pravastatin] (top concentration 10000 nM) | -0.66 | 3.04 | -0.66 | -0.66 | -0.66 | -0.66 | -0.66 | -0.66 | -0.66 | -0.46 | -0.16 | 0.04 | -0.66 | -0.46 | -0.66 | 0.64 | -0.66 | 0.94 | -0.66 | -0.66
COC(=O)c1ccc([C@H]2c3[nH]c4ccccc4c3C[C@H](C(=O)OC)N2C(=O)CCl)cc1 [RSL3] (top concentration 10000 nM) | 0.4 | 0 | 0 | 0 | 0 | 2.7 | 0 | 0 | 0 | 0 | 0 | 0 | 0 | 0.2 | 0 | 3.5 | 0 | 0.3 | 0 | 0
Cc1cnc(NC(=O)Nc2cc(Br)c(C)cc2OC[C@@H]2CNCCO2)cn1 [Rabusertib] (top concentration 1000 nM) | -0.74 | 0.16 | -0.74 | 1.26 | 0.46 | -0.74 | -0.74 | -0.14 | -0.74 | 1.36 | 0.16 | -0.74 | 6.16 | 0.06 | -0.74 | 3.06 | -0.74 | 7.36 | -0.74 | 1.66
CCOCc1nc2c(N)nc3ccccc3c2n1CC(C)(C)O [Resiquimod] (top concentration 10000 nM) | -4.92 | -4.12 | -4.92 | -4.92 | -3.02 | -2.82 | -4.92 | -3.22 | -4.72 | -4.32 | -4.92 | -1.22 | -4.92 | -4.92 | -4.62 | -4.62 | -4.92 | -4.02 | -4.42 | -4.92
C[C@H]1CNCCCN1S(=O)(=O)c1cccc2cncc(F)c12 [Ripasudil] (top concentration 10000 nM) | -0.22 | -0.22 | -0.22 | -0.22 | -0.22 | -0.22 | 1.18 | -0.22 | 1.78 | -0.22 | -0.22 | 4.88 | -0.22 | -0.12 | 2.68 | -0.22 | -0.22 | -0.22 | -0.22 | 0.88
Cc1nc(C(=O)NCC(=O)O)c(O)c2ccc(Oc3ccccc3)cc12 [Roxadustat] (top concentration 10000 nM) | 5.28 | -1.12 | -1.12 | -1.12 | -1.12 | -1.12 | -0.82 | 0.88 | -1.02 | -1.12 | -0.32 | -1.12 | -1.12 | -1.02 | -0.92 | 1.08 | -0.92 | -1.12 | -1.12 | -0.92
CN(C)C[C@@H]1CCn2cc(c3ccccc32)C2=C(C(=O)NC2=O)c2cn(c3ccccc23)CCO1 [Ruboxistaurin] (top concentration 10000 nM) | -5.14 | 0.16 | -1.24 | 0.66 | -8.24 | 0.46 | -1.74 | -0.34 | 1.16 | 0.96 | 1.66 | 0.06 | -0.44 | -0.34 | 2.36 | 1.16 | -3.34 | 1.16 | 0.76 | 0.86
CN(CC(=O)N(Cc1ccc(C2CCCCC2)cc1)c1ccc(C(=O)O)cc1)S(=O)(=O)c1c(F)c(F)c(F)c(F)c1F [SH-4-54] (top concentration 25000 nM) | -6.84 | -3.34 | -6.04 | -6.14 | -4.04 | -5.24 | -6.04 | -6.74 | -0.04 | -2.14 | -4.34 | -5.94 | -2.74 | -4.54 | -2.64 | -6.34 | -2.84 | -5.44 | -5.34 | -1.94
Cc1cc2c(C(=O)NC[C@H](C)c3ccccc3)c(O)c(O)cc2c(O)c1-c1c(C)cc2c(C(=O)NC[C@H](C)c3ccccc3)c(O)c(O)cc2c1O [Sabutoclax] (top concentration 25000 nM) | 19.4 | 13.8 | 9.18 | 10.4 | 2.98 | 15.9 | 13.7 | 17.6 | 12.8 | 15.3 | 16.8 | 16 | 10.6 | 13.8 | 15.9 | -7.62 | 11.3 | 15.6 | 15.7 | 17.9
CC1=C2C[C@H]3[C@@H](CC[C@@H]4C[C@H](NS(C)(=O)=O)CC[C@@]43C)[C@@H]2CC[C@@]2(C1)O[C@@H]1C[C@H](C)CN[C@H]1[C@H]2C [Saridegib] (top concentration 10000 nM) | 0.34 | 0.54 | -0.86 | -1.16 | -1.16 | -0.66 | -0.06 | -0.26 | -0.06 | 0.94 | 1.04 | 0.64 | 4.74 | -0.46 | 1.24 | 1.14 | 5.04 | -1.16 | 5.34 | -1.16
Cc1cc(F)c(C(=O)Nc2cccc(-c3nncn3C(C)C)n2)cc1-n1cnc(C2CC2)c1 [Selonsertib] (top concentration 1000 nM) | 0 | 0 | 0 | 0 | 0 | 0.9 | 0 | 0 | 0 | 0 | 0 | 0 | 0 | 0 | 0.3 | 6.6 | 0 | 0 | 0 | 0
Nc1nc2cc(-c3ccc4ncc(C(=O)N5CCOCC5)n4c3)ccc2o1 [Serabelisib] (top concentration 10000 nM) | 0.66 | 0.86 | -1.54 | 1.56 | -1.54 | 1.46 | -1.54 | -0.94 | -1.14 | -0.14 | 0.96 | 1.26 | 0.66 | 0.76 | 2.96 | -1.54 | 2.96 | -1.54 | -1.54 | 2.56
CCC(C)(C)C(=O)O[C@H]1C[C@@H](C)C=C2C=C[C@H](C)[C@H](CC[C@@H]3C[C@@H](O)CC(=O)O3)[C@H]21 [Simvastatin] (top concentration 10000 nM) | 0.38 | 2.18 | -0.72 | 1.58 | -0.72 | 1.28 | 2.18 | 2.18 | 0.68 | 0.08 | -0.22 | -0.72 | -0.72 | 2.38 | -0.22 | 3.08 | -0.72 | 6.68 | -0.72 | 4.48
C=CCN(/C=C1/C(=O)O[C@H](COC)[C@@]2(C)C1=C(O)C(=O)C1=C2[C@H](OC(C)=O)C[C@]2(C)C(=O)CC[C@@H]12)CC=C [Sonolisib] (top concentration 10000 nM) | -0.76 | -0.56 | -0.76 | -0.76 | -0.76 | -0.16 | -0.76 | -0.76 | -0.66 | -0.76 | -0.76 | -0.76 | 1.64 | -0.66 | 0.24 | 1.94 | -0.76 | -0.06 | -0.66 | -0.16
CC(C)n1cnc2c(NCCc3ccc(O)cc3)nc(-c3csc4ccccc34)nc21 [StemRegenin_1] (top concentration 10000 nM) | 6.4 | -0.1 | 2.5 | -0.5 | 4.2 | 2.2 | 0.2 | 4.4 | 0.8 | -1.8 | -0.2 | -0.2 | 4.5 | 1.4 | -0.5 | 2.4 | -1.8 | -0.3 | -1.8 | 0.1
CC(C)(O)CC(=O)NCCn1ccc2ncnc(Nc3ccc(Oc4cccc(C(F)(F)F)c4)c(Cl)c3)c21 [TAK-285] (top concentration 2500 nM) | 0 | 0 | 0 | 0 | 0 | 0 | 0 | 0 | 0 | 0 | 0 | 0 | 0 | 0.2 | 0 | 3.1 | 0 | 0 | 0 | 0
Nc1nc(N)c2nc(-c3cccc(O)c3)c(-c3cccc(O)c3)nc2n1 [TG100-115] (top concentration 10000 nM) | -0.4 | 0.1 | -0.4 | 0.7 | -0.4 | 3.6 | -0.3 | 1.1 | 0.2 | -0.4 | -0.4 | -0.3 | 0.1 | 0.4 | 0.7 | 3.2 | -0.4 | -0.1 | -0.4 | 2.7
CC/C(=C(\c1ccccc1)c1ccc(OCCN(C)C)cc1)c1ccccc1 [Tamoxifen] (top concentration 10000 nM) | 6.02 | 4.12 | -0.98 | -1.28 | -2.28 | 3.32 | 0.32 | 2.82 | 1.32 | 1.22 | 0.62 | 3.02 | 3.72 | 0.82 | 1.62 | 1.82 | 5.72 | 1.42 | 2.32 | 7.92
